# Experimental data reported in patent US12187662B2, “FOXM1 inhibitor compositions and methods of using the same” (The Board of Trustees of the University of Illinois, priority 2018, dated 2025).
# How the values were obtained:
# [1] = system: tamoxifen-resistant MCF7 breast cancer cells; test: Proliferation of tamoxifen-resistant MCF7 cells; assay type: cell-based, human; conditions: 6 days
# Method: Values are mean±SD of three separate assays. Cell proliferation assay WST-1 assay (Roche, Basel, Switzerland) was used to quantify cell viability as described (Gong et al., Mol. Cell Endocrinol., 2016, 437:190-200). Absorbance was measured at 450 nm using a VICTOR X5 PerkinElmer 2030 Multilabel Plate Reader. All assays were performed in triplicate.
# [2] = system: FOXM1 target genes in MCF7 cells; test: FOXM1 target gene expression by qRT-PCR, MCF7; assay type: cell-based, human; conditions: MCF7, 24 h, at IC50 concentration
# Method: (§1) RNA was extracted from cells and expression of different genes was monitored by qRT-PCR. Assays were run in triplicate. Values are mean±SEM. *, p<0.05; **, p<0.01; ***, p<0.001. RNA isolation and real-time PCR Total RNA was isolated using TRIzol (Invitrogen) and reverse transcribed using […] reverse transcriptase (New England BioLabs). Real-time PCR was performed using SYBRgreen PCR Master Mix (Roche) as described (Bergamaschi et al., Breast Cancer Res., 2014, 16:436). Relative mRNA levels of genes were normalized to the housekeeping gene 36B4, and fold change calculated relative to the vehicle treated samples. Results are the average±SD from at least two independent experiments carried out in triplicate. Primer sequences for the genes studied were obtained from the Harvard Primer Bank. Sequences are available on their website.
# [3] = system: FOXM1 target genes in DT22 cells; test: FOXM1 target gene expression by qRT-PCR, DT22; assay type: cell-based, human; conditions: DT22, 24 h, at IC50 concentration
# Source text: as §1, with “Real-time PCR was performed using SYBRgreen PCR Master Mix (Roche) as described (Bergamaschi et al., Breast Cancer Res., 2014, 16:436).” left out
# [4] = system: DT22 triple negative human breast tumor xenografts; test: DT22 triple negative breast tumor xenografts in NSG mice; assay type: in vivo, mouse; conditions: for Expression of FOXM1-regulated genes in tumors: q-PCR at end of treatment
# Method: In vivo breast cancer xenograft studies For examination of the growth of triple-negative DT22 breast tumors, intact female NOD/SCID-gamma (NSG) mice were used. DT-22 cells (1×10^6 cells/mouse) were injected s.c. into the right axial mammary gland. Mice received s.c. injection or oral gavage daily or every second or third day, as indicated, with vehicle or FOXM1 inhibitor compound, and tumor growth was monitored over time.
# [5] = system: FOXM1 cistrome genes in MDA-MB-231 cells; test: RNA-Seq Gene Set Enrichment Analysis, MDA-MB-231; assay type: cell-based, human; conditions: NB-73 […] 24 h, siFOXM1 25 nM 72 h
# Method: RNA-Seq transcriptional profiling and gene ontology analysis For gene expression analysis, total RNA was extracted from cells using Trizol reagent and further cleaned using the Turbo DNase and RNAqueous kits (ThermoFisher). Cells were treated with Veh (0.1% EtOH), or with the compounds indicated for 9 h or 24 h. Once the sample quality and replicate reproducibility were verified, samples from each group were subjected to sequencing. RNA at a concentration of 100 ng/μL in nuclease-free water was used for library construction. cDNA libraries were prepared with the mRNA-TruSeq Kit (Illumina, Inc.). In brief, the poly-A containing mRNA was purified from total RNA, the RNA was fragmented, double-stranded cDNA was generated from fragmented RNA, and adapters were ligated to the ends.
# The paired-end read data from the HiSeq 4000 were processed and analyzed through a series of steps. […] Reads were trimmed of adapters and low expression data using Trimmomatic version 0.38. The star alignment tool version 2.5.3a was used to align the sequenced reads to the GRCh37 human genome from Ensembl. Gene counts were calculated using subread version 1.5.2. […]
# Gene Set Enrichment Analysis (GSEA) was used for examination of the genome-wide expression profiles. Overrepresented GO biological processes were determined by the web-based DAVID Bioinformatics Resources database.
# [6] = Pharmacokinetic studies in mice after single s.c. or oral dose
# Method: For s.c. injection, each compound was dissolved in DMSO and then mixed with corn oil for a total injection volume of 100 μL (10% DSMO+90% corn oil) per mouse. For oral gavage, compounds were administered in a 200 μL formulation of 9/0.5/0.5/90 parts of PEG400/Tween80/Povidone/0.5% Carboxymethylcellulose. […] Compounds were quantified by LC-MS/MS at the University of Illinois Metabolomics Core Facility. The data were fitted to a non-compartment model.
smiles,measurement,setting,value
"C[N+]1(CCCCCCOc2ccc(C(c3ccc(OCCCCCC[N+]4(C)CCCCCC4)cc3)=C3C4C[C@H]5C[C@@H](C4)C[C@H]3C5)cc2)CCCCCC1 [NB-73, 1,1′-((((((5r,7r)-adamantan-2-ylidene)methylene)bis(4,1-phenylene))bis(oxy))bis(hexane-6,1-diyl))bis(1-methylazepan-1-ium) diiodide]",Effect on proliferation of tamoxifen-resistant MCF7 cells,[1],effectively suppressed
same,Expression of ATF3 (gene suppressed by FOXM1),[2],increased
same,"Expression of FOXM1 stimulated target genes (FOXM1C, AURKB, CCNB1, PLK1)",[2],significantly reduced
same,Expression of ATF3 (gene suppressed by FOXM1),[3],increased
same,"Expression of FOXM1 stimulated target genes (FOXM1C, AURKB, CCNB1, PLK1)",[3],significantly reduced
same,Growth of DT22 tumor xenografts,"[4]; 5 mg/kg s.c. daily, every other day from day 21",reduced tumor growth
same,Expression of FOXM1-regulated genes in tumors,[4]; 5 mg/kg s.c.,significant reduction
same,Growth of DT22 tumor xenografts,"[4]; 10 mg/kg s.c. daily, every other day from day 21",even more markedly suppressed growth
same,Expression of FOXM1-regulated genes in tumors,[4]; 10 mg/kg s.c.,greatly reduced
same,"Tumor growth in vivo, low doses",[4]; 5 or 10 mg/kg s.c. every second or third day,greatly suppress tumor growth
same,Growth of DT22 tumor xenografts,"[4]; s.c., 20 mg/kg every other day for first 10 days then 10 mg/kg every other day",greatly suppress tumor growth
same,GSEA enrichment against FOXM1 target gene sets,[5],negative enrichment scores
same,half-life,"[6]; female, CD-1, mouse, plasma, sc",25 to 40 h
same,half-life,"[6]; female, CD-1, mouse, plasma, sc, 60 mg/kg",170 h
same,AUC(0-t),"[6]; female, CD-1, mouse, plasma, sc, 60 mg/kg, PK s.c. AUC0-48, mice, 60 mg/kg s.c.",190 µM·h
same,PK p.o. AUC0-48,"[6]; mice, 60 mg/kg p.o.",too low to measure
same,Blood levels after oral administration,"[6]; mice, oral, doses of FIGS. 6A-6B",very low levels
same,Blood levels after s.c. injection,"[6]; mice, s.c., doses of FIGS. 6A-6B",very high blood levels
